Patent US20230241063A1, “METHODS OF TREATING PROSTATE CANCER” (Celgene Quanticel Research, Inc., priority 2020, published 2023)
“Also recorded” adds a separate entry of the source.

Tests used:
[1] = test system: LNCaP-AR cells; assay: Proliferation assay (Cell Titer-Glo) in LNCaP-AR cells; type: cell-based, human; details: single agent, 3 days
[2] = test system: Krt8; assay: Krt8 gene expression by qPCR in DKO cells; type: cell-based, mouse; details: 8 days, enzalutamide 10 uM in the combination
[3] = test system: Krt8; assay: Krt8 gene expression by qPCR in TKO cells; type: cell-based, mouse; details: single agent, 8 days
[4] = test system: PC3 cells; assay: Proliferation assay (Cell Titer-Glo) in PC3 cells; type: cell-based, human; details: single agent, 3 days, CellTiter Glo
[5] = test system: LNCaP-AR CRISPRi TP53/RB1 cells; assay: Proliferation assay (Cell Titer-Glo) in LNCaP-AR CRISPRi TP53/RB1 cells; type: cell-based, human; details: single agents, 6 days, LNCaP_AR guideTP53/RB1 cells
[6] = test system: VCaP cells; assay: Proliferation assay (Cell Titer-Glo) in VCaP cells; type: cell-based, human; details: 3 days; enzalutamide 10 uM in the combination
[7] = test system: LNCaP cells; assay: Proliferation assay (Cell Titer-Glo) in LNCaP cells; type: cell-based, human; details: single agent, 6 days
[8] = test system: TKO cells; assay: Proliferation assay (Cell Titer-Glo) in TKO cells; type: cell-based, mouse; details: Compound A alone
[9] = test system: DKO cells; assay: Proliferation assay (Cell Titer-Glo) in DKO cells; type: cell-based, mouse; details: Compound A alone

| Compound | effect on cell proliferation [1] | induction of Keratin8 (Krt8) expression [2] | concentration of Compound A able to induce the expression of Krt8 [3] | effect on cell proliferation of PC3 cells [4] | effect on proliferation [5] | effect on proliferation of VCaP cells [6] | effect on proliferation of LNCaP cells [7] | effect on TKO cell proliferation [8] | effect on DKO cell proliferation [9] | effect on proliferation ([5]; listed as ENZA) |
| --- | --- | --- | --- | --- | --- | --- | --- | --- | --- | --- |
| COc1ccc(-c2c(-c3ccc(C#N)c(F)c3)nc(N3CCC(N)CC3)n(C)c2=O)cc1F [Compound A, 4-[2-(4-amino-piperidin-1-yl)-5-(3-fluoro-4-methoxy-phenyl)-1-methyl-6-oxo-1,6-dihydro-pyrimidin-4-yl]-2-fluoro-benzonitrile] | no effect on cell proliferation | 1.5 fold | ≥ 1 µM | did not affect cell proliferation; also recorded: does not affect cell proliferation | do not affect proliferation; also recorded: did not affect proliferation | no effect on proliferation; also recorded: did not affect proliferation | no effect on proliferation; also recorded: did not affect proliferation | mild effect | mild effect |  |
| CNC(=O)c1ccc(N2C(=S)N(c3ccc(C#N)c(C(F)(F)F)c3)C(=O)C2(C)C)cc1F [enzalutamide, 4-{3-[4-cyano-3-(trifluoromethyl)phenyl]-5,5-dimethyl-4-oxo-2-sulfanylideneimidazolidin-1-yl}-2-fluoro-N-methylbenzamide, reference compound] |  |  |  | resistant | do not affect proliferation |  |  |  |  | did not affect proliferation |
